Source: patent US20030092077A1, “Human sperm activator peptides” (priority 2001, published 2003)

Experiments:
human sperm [1] = test: Sperm chemotaxis assay with phage displaying the peptide (two-chamber apparatus); type: cell-based; details: 37° C. for 1 hr; for sperm count in the lower chamber: one experiment done in triplicate, phage displaying peptide
Method: (§1) Preparation of sperm: One tube (0.5 ml) of a sperm sample was thawed at room temperature for 15-20 mm. As soon as the sperm was thawed, 0.5 ml of Hams-F10 medium was added, and the sample transferred to a 5 ml culture tube. The sperm was diluted to 4 ml with Hams-F10 medium, mixed well, and centrifuged at 2000 rpm for 5 mm. The supernatant was decanted and the cells resuspended in 4 ml of fresh Hams-F 10 medium. The centrifugation was repeated and the clean sperm pellet resuspended in 1 ml Hams-F10 medium. A 50 μl sample aliquot was used per each assay condition.
Assay: The chambers of the assay apparatus were assembled with 8.iM membranes pre-wetted with Hams-F10 medium. A sample of phage containing a specific peptide sequence or a control peptide sequence was diluted with Hams-F10 medium to give a 100 ml phage containing solution which was placed in the bottom chamber of the apparatus. A sperm sample having at least 1×10^6 sperm was added to the upper chamber. After incubation 37° C. for 1 hr, the sample in the bottom chamber was collected into microfuge tubes and centrifuged at 6000 rpm for 5 mm. The supernatant was removed and the pellet resuspended in suitable volume to be counted in a hemocytometer.
Results: Various concentrations of phage containing the Husap peptide (TMGFTAPRFPHY; SEQ. ID. NO. 1), phage containing a control sequence (KSLSRHDHIHHH; SEQ. ID. NO. 20) or buffer without phage were used in the assays. Sperm counts 2-15 fold greater in the well containing the Husap peptide displaying phage were consistently obtained when compared to control phage or buffer-alone chambers. For example, in one experiment done in triplicate, the sperm count in the lower chamber was 76×10^4 for the Husap peptide compared to 5×10^4 for the control peptide and 21×10^4 for buffer alone.

human sperm [2] = test: Effect of varying concentrations of Husap peptide on chemotaxis of human sperm; type: cell-based; details: 2.8×10^6 sperm in upper chamber, 5 micron membrane, 37° C. 1 h
Method: as §1
The effect of varying concentrations of the Husap peptide on chemotaxis of human sperm was also determined. Sperm at a concentration of 2.8×10^6 were added to the upper chamber. The peptide concentration in the lower chamber was varied from 0 μl to […] of peptide. Sperm were separated from the lower chamber by a 5 micron membrane filter. The chambers were incubated at 37° C. for 1 h. At the end of the incubation, sperm were collected from the lower chamber and counted in a hemocytometer. The experiment was performed several times with varying peptide concentrations and with 5 and 8 micron membranes.

Substance | sperm count in the lower chamber (human sperm [1]) | Sperm Count in Lower Chamber (human sperm [2]; HusaP concentration 10 uM) | Sperm Count in Lower Chamber (human sperm [2]; HusaP concentration 20 uM) | Sperm Count in Lower Chamber (human sperm [2]; HusaP concentration 100 uM) | Sperm counts, fold greater compared to control phage or buffer-alone chambers (human sperm [1]; phage displaying peptide in bottom chamber, various phage concentrations)
KSLSRHDHIHHH [control peptide, reference compound] | 5×10^4 |  |  |  | 
NH2-Thr-Met-Gly-Phe-Thr-Ala-Pro-Arg-Phe-Pro-His-Tyr-COOH (H-TMGFTAPRFPHY-OH; listed as Homo sapiens) [Husap peptide, human sperm chemotactic peptide …] | 76×10^4 | 6 × 10^4 | 12 × 10^4 | 52 × 10^4 | 2-15 fold
